Measurements taken from patent US4985447A, “Certain benzoquinones, naphthoquinones and derivatives thereof which exhibit thromboxane A2 synthetase inhibition or receptor antagonism and the like” (Takeda Chemical Industries, Ltd., priority 1986, dated 1991).
Several values for one entry are separate records, joined by “and”; a condition that tells them apart may be missing. Equal values may be shown once.

What was measured:
[1] = Proteinuria improving effect in rat with adriamycin-induced nephrosis; type: in vivo, rat (Sprague-Dawley)
Method: Procedure: The experiment was carried out with Sprague-Dawley rat (male, 5 weeks old) according to the method of T. Bertani et al.[(Laboratory Invest.4, 16, (1982)]. Adriamycin was given intravenously at the dose of 7.5 mg/kg and two weeks later urine was collected for 24 hours after water was loaded orally at 10 ml/kg. Total urinary protein and albumin excreted in the urine were determined; rats of which total urinary protein was 20 mg/100g/24 hours or more were chosen for the experiment. The control group received water (vehicle) alone at 10 ml/kg/day, and the Compound No.18 group received the Compound at the dose of 50 mg/kg/day (10 ml/kg, water) once a day for 2 weeks. After 1 week or 2 weeks of treatment with the drug, 24 hour-urine was collected to determine total urinary protein and albumin. Two weeks later blood was taken from the thoracic aorta of the rat under pentobarbital anesthesia (50 mg/kg, intraperitoneal injection) to determine plasma cholesterol level.

[2] = Improving effect on glomerulonephritis in rat; type: in vivo, rat (Sprague-Dawley); conditions: for total urinary protein / urinary albumin: 50 mg/kg/day, p.o.
Method: Procedure: Nephritic rat was prepared according to the method of Matsunaga et al.[Folia pharmacol. japon. 78, 491,(1981)]using Sprague-Dawley rat (male, 5 weeks old). That is, the rat was immunized preliminarily by subcutaneous injection of a mixture of 3 mg of rabbit serum albumin (RSA) and an equal volume of Freund's complete adjuvant, and from two weeks after that RSA was given intravenously at the dose of 1 mg/rat three times a week for 8 weeks. Then 24 hour-urine was collected to determine total urinary protein and urinary albumin. Rats of which total urinary protein was 20 mg/100g/24hr or more were chosen for the experiment. The control group received water (vehicle) alone at 10 ml/kg/day, and the Compound No.18 group received the Compound at the dose of 50 mg/kg/day (10 ml/kg, water) once a day for 2 weeks. After 1 week and 2 weeks of treatment, 24 hour-urine was collected to determine total urinary protein and urinary albumin.

[3] = Toxicological study in the rat; type: in vivo, rat (male Wistar); design: key to Spleen: Widening of red pulp / Spleen: Congestion (dilatation of sinus) / Spleen: Extramedullary hematopoiesis / Spleen: Atrophy of white pulp / Liver: Parenchymal cell alteration / Kidney: Dilatation of pelvis / Heart: Cardiac cell alteration / Lung: Alteration / Bone marrow: Proliferation of erythroblast: -: negative; +: mild; ++: moderate; +++: severe; conditions: for Adrenals weight / Body weight (B.V.) / Brains weight / Gonads weight / Heart weight / Hypophy. weight / Kidney weight / Liver weight / Lung weight / Spleen weight / Thymus weight / Thyroid weight / Bone marrow: Proliferation of erythroblast / Heart: Cardiac cell alteration / Kidney: Dilatation of pelvis / Liver: Parenchymal cell alteration / Lung: Alteration / Spleen: Atrophy of white pulp / Spleen: Congestion (dilatation of sinus) / Spleen: Extramedullary hematopoiesis / Spleen: Widening of red pulp: 2 weeks; for Adrenals weight / Body weight (B.V.) / Brains weight / Gonads weight / Heart weight / Hypophy. weight / Kidney weight / Liver weight / Lung weight / Spleen weight / Thymus weight / Thyroid weight: mean; for A/G ratio / AI.P / Albumin / Calcium / GOT / GPK / GPT / Glucose / Greatinine / LAP / LDH / Total bilirubin / Total cholesterol / Total protein / Urea nitrogen: mean ± S.D.
Method: Procedure: Five weeks old, male Wistar rats were used. The rats were given the Compound 18 orally once a day for 14 days at doses of 100 and 300 mg/kg/10 ml of water as a suspension with 5% gum arabic. Control rats were given vehicle (10 ml/kg of water) alone. After fasting a night following the final dose of a 2 week treatment, the rats were anesthetized with ethyl ether and the blood was collected into a heparinized syringe from the abdominal aorta and the plasma was separated for the examination of blood chemistry. Blood parameters such as total protein, glucose, calcium, urea nitrogen, creatinine, total cholesterol, total bilirubin, alkaline phosphatase (ALP), leucine aminopeptidase (LAP), lactate dehydrogenase (LDH), glutamic oxaloacetic transaminase (GOT), glutamic pyruvic transaminase (GPT), creatine phosphokinase (CPK), albumin and A/G ratio were analysed by use of auto-analyzer (Hitachi 716). The organs such as liver, kidney, heart, lung, spleen, adrenal glands, thymus, testris, brain and hypophysis were excised and weighed. Some organs (liver, kidney, heart, lung, spleen) were fixed in 10% neutral formalin solution for histological examinations. Bone marrow was fixed as well without weighing. These fixed organs were stained with Hematoxyline-Eosin for histological examinations.

[4] = 50 mg/kg/day, p.o., 1 week after
[5] = 50 mg/kg/day, p.o., 2 weeks after
[6] = 50 mg/kg/day, p.o., before treatment
[7] = 1 week after, *p<0.05 against pretreatment
[8] = 2 weeks after, *p<0.05 against pretreatment
[9] = 100 mg/kg/day, single rats No. 7-10
[10] = 300 mg/kg/day, single rats No. 11-15

With `CC1=C(C)C(=O)C(Cc2cccnc2)=C(C)C1=O` [Compound No. 18] the “effect on adriamycin-induced nephrosis (in words)” value ([1]; 50 mg/kg/day for 2 weeks) was “improves adriamycin-induced nephrosis”, the “total urinary protein versus pretreatment value (in words)” value ([1]; 50 mg/kg/day for 2 weeks) was “neither total urinary protein nor urinary albumin differed from the respective pretreatment values” and the “urinary albumin versus pretreatment value (in words)” value ([1]; 50 mg/kg/day for 2 weeks) was “neither total urinary protein nor urinary albumin differed from the respective pretreatment values”. The total urinary protein [1, 4] was 55 ± 17 mg/100 g/24 hr, the urinary albumin [1, 4] was 25 ± 10 and the total urinary protein [1, 5] was 59 ± 9 mg/100 g/24 hr. The urinary albumin [1, 5] was 31 ± 7, the serum cholesterol ([1]; 50 mg/kg/day, p.o., 2 weeks after, #p<0.05 against control) was 49 ± 4 mg/dL and the total urinary protein [1, 6] was 76 ± 28 mg/100 g/24 hr. For the same compound, the urinary albumin [1, 6] was 28 ± 14, the “serum cholesterol level (in words)” value ([1]; after 2 weeks, 50 mg/kg/day) was “decreased remarkably” and the “effect on nephritis (in words)” value ([2]; 50 mg/kg/day for 2 weeks) was “improves nephritis”. The “total urinary protein compared with control group (in words)” value ([2]; 50 mg/kg/day for 2 weeks) was “decreased total urinary protein”, the “urinary albumin compared with control group (in words)” value ([2]; 50 mg/kg/day for 2 weeks) was “decreased total urinary protein and urinary albumin” and the total urinary protein [2, 7] was 37 ± 8 mg/100 g/24 hr. For the same compound, the urinary albumin [2, 7] was 17 ± 5, the total urinary protein [2, 8] was 48 ± 16 mg/100 g/24 hr and the urinary albumin [2, 8] was 24 + 12. For the same compound, the total urinary protein ([2]; before treatment) was 75 ± 28 mg/100 g/24 hr, the urinary albumin ([2]; before treatment) was 45 ± 21 and the Adrenals weight ([3]; 100 mg/kg orally) was 47.7 mg. The “Body weight (B.V.)” value ([3]; 100 mg/kg orally) was 170.3 g, the Brains weight ([3]; 100 mg/kg orally) was 1.747 g and the Gonads weight ([3]; 100 mg/kg orally) was 1.906 g. The Heart weight ([3]; 100 mg/kg orally) was 0.709 g, the Hypophy. weight ([3]; 100 mg/kg orally) was 8.3 mg and the Kidney weight ([3]; 100 mg/kg orally) was 1.579 g. The Liver weight ([3]; 100 mg/kg orally) was 6.347 g, the Lung weight ([3]; 100 mg/kg orally) was 0.872 g and the Spleen weight ([3]; 100 mg/kg orally) was 0.673 g. The Thymus weight ([3]; 100 mg/kg orally) was 0.45 g, the Thyroid weight ([3]; 100 mg/kg orally) was 11.4 mg and the “Bone marrow: Proliferation of erythroblast” value [3, 9] was “-”. For the same compound, the “Heart: Cardiac cell alteration” value [3, 9] was “-”, the “Kidney: Dilatation of pelvis” value [3, 9] was “- (2×) and ++ and +” and the “Liver: Parenchymal cell alteration” value [3, 9] was “-”. The “Lung: Alteration” value [3, 9] was “-”, the “Spleen: Atrophy of white pulp” value [3, 9] was “-” and the “Spleen: Congestion (dilatation of sinus)” value [3, 9] was “-”. For the same compound, the “Spleen: Extramedullary hematopoiesis” value [3, 9] was “+”, the “Spleen: Widening of red pulp” value [3, 9] was “-” and the A/G ratio ([3]; 100 mg/kg/day) was 1.65 ± 0.05. For the same compound, the AI.P ([3]; 100 mg/kg/day) was 194 ± 32 U/I, the Albumin ([3]; 100 mg/kg/day) was 3.43 ± 0.05 g % and the Calcium ([3]; 100 mg/kg/day) was 9.84 ± 0.41 mg %. For the same compound, the GOT ([3]; 100 mg/kg/day) was 57 ± 6 U/I, the GPK ([3]; 100 mg/kg/day) was 44 ± 5 U/I and the GPT ([3]; 100 mg/kg/day) was 13 ± 1 U/I. It also gave a Glucose ([3]; 100 mg/kg/day) of 104 ± 11 mg %, a Greatinine ([3]; 100 mg/kg/day) of 0.5 ± 0.0 mg % and an LAP ([3]; 100 mg/kg/day) of 20 ± 1 U/I. The LDH ([3]; 100 mg/kg/day) was 86 ± 22 U/I, the Total bilirubin ([3]; 100 mg/kg/day) was 0.27 ± 0.03 mg % and the Total cholesterol ([3]; 100 mg/kg/day) was 47 ± 7 mg %. The Total protein ([3]; 100 mg/kg/day) was 5.51 ± 0.11 g %, the Urea nitrogen ([3]; 100 mg/kg/day) was 15.8 ± 0.7 mg % and the “body weight (in words)” value ([3]; 300 mg/kg) was “tended to have a lower body weight, but the change was not significant”. The “splenomegaly (in words)” value ([3]; 300 mg/kg) was “one of 5 rats showed a mild splenomegaly”, the Adrenals weight ([3]; 300 mg/kg orally) was 43.0 mg and the “Body weight (B.V.)” value ([3]; 300 mg/kg orally) was 162.0 g. It also gave a Brains weight ([3]; 300 mg/kg orally) of 1.714 g, a Gonads weight ([3]; 300 mg/kg orally) of 1.873 g and a Heart weight ([3]; 300 mg/kg orally) of 0.913 g. The Hypophy. weight ([3]; 300 mg/kg orally) was 8.1 mg, the Kidney weight ([3]; 300 mg/kg orally) was 1.508 g and the Liver weight ([3]; 300 mg/kg orally) was 6.264 g. It also gave a Lung weight ([3]; 300 mg/kg orally) of 0.929 g, a Spleen weight ([3]; 300 mg/kg orally) of 0.703 g and a Thymus weight ([3]; 300 mg/kg orally) of 0.447 g. The Thyroid weight ([3]; 300 mg/kg orally) was 12.0 mg, the “extramedullary hematopoiesis (in words)” value ([3]; 300 mg/kg, one of 5 rats) was “increased extramedullary hematopoiesis” and the “Bone marrow: Proliferation of erythroblast” value [3, 10] was “-”. For the same compound, the “Heart: Cardiac cell alteration” value [3, 10] was “-”, the “Kidney: Dilatation of pelvis” value [3, 10] was “- (4×) and +” and the “Liver: Parenchymal cell alteration” value [3, 10] was “-”. The “Lung: Alteration” value [3, 10] was “-”, the “Spleen: Atrophy of white pulp” value [3, 10] was “- (4×) and +” and the “Spleen: Congestion (dilatation of sinus)” value [3, 10] was “-”. For the same compound, the “Spleen: Extramedullary hematopoiesis” value [3, 10] was “+ (4×) and ++”, the “Spleen: Widening of red pulp” value [3, 10] was “- (3×) and + (2×)” and the A/G ratio ([3]; 300 mg/kg/day) was 1.73. It also gave an AI.P ([3]; 300 mg/kg/day) of 149 U/I, an Albumin ([3]; 300 mg/kg/day) of 3.47 ± 0.13 g % and a Calcium ([3]; 300 mg/kg/day) of 9.70 ± 0.18 mg %. It also gave a GOT ([3]; 300 mg/kg/day) of 64 ± 9 U/I, a GPK ([3]; 300 mg/kg/day) of 52 ± 9 U/I and a GPT ([3]; 300 mg/kg/day) of 14 ± 1 U/I. For the same compound, the Glucose ([3]; 300 mg/kg/day) was 97 ± 11 mg %, the Greatinine ([3]; 300 mg/kg/day) was 0.4 ± 0.1 mg % and the LAP ([3]; 300 mg/kg/day) was 19 ± 1 U/I. For the same compound, the LDH ([3]; 300 mg/kg/day) was 99 ± 18 U/I, the Total bilirubin ([3]; 300 mg/kg/day) was 0.28 ± 0.02 mg % and the Total cholesterol ([3]; 300 mg/kg/day) was 41 ± 14 mg %. The Total protein ([3]; 300 mg/kg/day) was 5.48 ± 0.20 g %, the Urea nitrogen ([3]; 300 mg/kg/day) was 14.5 ± 0.6 mg % and the “blood chemistry (in words)” value ([3]; 100 and 300 mg/kg) was “no changes in the blood chemistry”. For the same compound, the “organ weight (in words)” value ([3]; 100 and 300 mg/kg) was “no significant changes in any organ weight” and the “histology of the other organs (in words)” value ([3]; after 2 weeks) was “The other organs showed no changes”.
